Experiments:
[1] = Electrochemical generation of H+ or OH- ions at indium tin oxide electrode surfaces (electro-oxidation / electro-reduction, cyclic voltammetry); type: physicochemical
Text: Electrode material used: The electrode material was indium tin oxide. This is a semiconducting electrode surface with very large potential window in an aqueous solution.
Oxidation of ascorbic acid at the electrode surfaces produced H^+ ions and changed the electrode surface pH to a more acidic state: AH2→A+2H^++2e^−, where AH2 is ascorbic acid ([…]) (as shown in FIG. 5). The electrode potential at which it oxidizes was less than 0.5V for Indium tin oxide material vs Ag/AgCl reference electrode (as shown in FIG. 7). This potential was less than the voltages needed for the oxygen evolution reaction in aqueous solution. The ascorbic acid also acted as a sacrificial species to prevent electrochemical degradation of the surface chemistry.
Reduction of benzoquinone (C6H4O2) into Hydroquinone (C6H6O2) can produce OH^− ions at −0.1V: BQ+2e^−+2H2O →HQ+2OH^− This reduction reaction increased the pH at the electrode interface.

[2] = biological target: T1, Green Fluorescent Protein (GFP) (Aequorea victoria, UniProt P42212); experiment: Fluorescence intensity of GFP after incubation with benzoquinones (protein stability); type: biochemical; conditions: 0.5 mM benzoquinone, phosphate buffered saline, 30 min
Experimental: Para-benzoquinones and ortho-benzoquinones (compounds 2, 4, 6, and 9 in FIG. 31) are susceptible to nucleophilic attack at the double bond of the ring (positions 2, 3, 5 and 6 in structure 2 of FIG. 31, positions 3, 4, 5 and 6 in structure 4 of FIG. 31, and positions 2 and 3 in structure 6 of FIG. 31). Introducing substituents at some or all of those positions can mitigate the problem of nucleophilic attack. […] Fluorescence intensity of Green Fluorescent Protein (GFP) was measured after incubation with three different benzoquinones in phosphate buffered saline for 30 min (concentration of benzoquinones was 0.5 mM). The difference in fluorescence intensity indicates the varied effect that the different substitutions in benzoquinones have on the stability of GFP. Fluorescence intensity of GFP is indicative of its structural integrity. Losses in fluorescence intensity usually indicate loss of its tertiary structure (protein denaturation) (Yin D. X., Zhu L., Schimke R. T. Anal. Biochem. 1996, 235:195-201).

[3] = biological target: T1, Green Fluorescent Protein (GFP); conditions: literature (Loomis et al.; U.S. Pat. No. 6,753,312); cited from earlier work

Row | SMILES | potential of current increase indicating start of oxidation ([1]; cyclic voltammetry, ITO electrodes) | electrode potential at which it oxidizes ([1]; indium tin oxide vs Ag/AgCl reference electrode) | potential of reduction producing OH- ions ([1]; reduction of benzoquinone into hydroquinone) | loss in GFP fluorescence intensity after incubation [2] | Michael addition reaction with amino groups of proteins [3]
1 | O=C1O[C@H]([C@@H](O)CO)C(O)=C1O [ascorbic acid] | around 0.25 V | less than 0.5 V |  |  | 
2 | O=C1C=CC(=O)C=C1 [unsubstituted benzoquinone, 1,4-benzoquinone] |  |  | −0.1 V | 25% | undergoes Michael addition reaction

From patent US10041905B2, “Electrochemically active agents for pH modulation in biological buffers” (Robert Bosch GmbH, priority 2015, dated 2018)
